Key:
[1] = target: T1, human VR1 (Homo sapiens, UniProt Q8NER1); test: Capsaicin-induced Ca2+ influx in the human VR1-transfected CHO cell line (Assay 1); assay type: cell-based; conditions: human VR1-CHOluc9aeq cells, stimulation with 10 nM capsaicin; read-out: activity class (IC50)
T1 construct: expressed in transfected cells; host or cells: CHOluc9aeq (CHO cells with aequorin and CRE-luciferase reporter genes)
Description: [Measurement of Capsalcin-Induced Ca^2+ Influx in the Human VR1-Transfected CHO Cell Line] (Assay 1)
(1) Establishment of the Human VR1-CHOluc9aeq Cell Line
Human vanilloid receptor (hVR1) cDNA was cloned from libraries of axotomized dorsal root ganglia (WO 00/29577). The cloned hVR1 cDNA was constructed with pcDNA3 vector and transfected into a CHOluc9aeq cell line. The cell line contains aequorin and CRE-luciferase reporter genes as read-out signals. The transfectants were cloned by limiting dilution in selection medium (DMEM/F12 medium (Gibco BRL) supplemented with 10% FCS, 1.4 mM Sodium pyruvate, 20 mM HEPES, 0.15% Sodium bicarbonate, 100 U/ml penicillin, 100 μg/ml streptomycin, 2 mM glutamine, non-essential amino acids and 2 mg/ml G418). Ca^2+ influx was examined in the capsaicin-stimulated clones. A high responder clone was selected and used for further experiments in the project. The human VR1-CHOluc9aeq cells were maintained in the selection medium and passaged every 3-4 days at 1-2.5×10^5 cells/flask ([…]).
(2) Measurement of Ca^2+ Influx Using FDSS-3000
Human VR1-CHOluc9aeq cells were suspended in a culture medium which is the same as the selection medium except for G418 and seeded at a density of 1,000 cells per well into 384-well plates (black walled clear-base/Nalgei Nunc International). Following the culture for 48 hrs the medium was changed to 2 μM Fluo-3 AM (Molecular Probes) and 0.02% Puronic F-127 in assay buffer (Hank's balanced salt solution (HBSS), 17 mM HEPES (pH7.4), 1 mM Probenecid, 0.1% BSA) and the cells were incubated for 60 min at 25° C. After washing twice with assay buffer the cells were incubated with a test compound or vehicle for 20 min at 25° C. Mobilization of cytoplasmic Ca^2+ was measured by FDSS-3000 (λex=488 nm, λem=546 nm/Hamamatsu Photonics) for 60 sec after the stimulation with 10 nM capsaicin. Integral R was calculated and compared with controls.
Results in capsaicin-induced Ca^2+ influx assay in the human VR1-transfected CHO cell line (Assay 1) are shown in Examples and tables of the Examples below. For practical reasons, the compounds are grouped in four classes based on activity as follows: IC50=A(< or =)0.1 μM<B(< or =)0.5 μM<C(< or =)1 μM<D

T1 sequence (Q8NER1 whole entry): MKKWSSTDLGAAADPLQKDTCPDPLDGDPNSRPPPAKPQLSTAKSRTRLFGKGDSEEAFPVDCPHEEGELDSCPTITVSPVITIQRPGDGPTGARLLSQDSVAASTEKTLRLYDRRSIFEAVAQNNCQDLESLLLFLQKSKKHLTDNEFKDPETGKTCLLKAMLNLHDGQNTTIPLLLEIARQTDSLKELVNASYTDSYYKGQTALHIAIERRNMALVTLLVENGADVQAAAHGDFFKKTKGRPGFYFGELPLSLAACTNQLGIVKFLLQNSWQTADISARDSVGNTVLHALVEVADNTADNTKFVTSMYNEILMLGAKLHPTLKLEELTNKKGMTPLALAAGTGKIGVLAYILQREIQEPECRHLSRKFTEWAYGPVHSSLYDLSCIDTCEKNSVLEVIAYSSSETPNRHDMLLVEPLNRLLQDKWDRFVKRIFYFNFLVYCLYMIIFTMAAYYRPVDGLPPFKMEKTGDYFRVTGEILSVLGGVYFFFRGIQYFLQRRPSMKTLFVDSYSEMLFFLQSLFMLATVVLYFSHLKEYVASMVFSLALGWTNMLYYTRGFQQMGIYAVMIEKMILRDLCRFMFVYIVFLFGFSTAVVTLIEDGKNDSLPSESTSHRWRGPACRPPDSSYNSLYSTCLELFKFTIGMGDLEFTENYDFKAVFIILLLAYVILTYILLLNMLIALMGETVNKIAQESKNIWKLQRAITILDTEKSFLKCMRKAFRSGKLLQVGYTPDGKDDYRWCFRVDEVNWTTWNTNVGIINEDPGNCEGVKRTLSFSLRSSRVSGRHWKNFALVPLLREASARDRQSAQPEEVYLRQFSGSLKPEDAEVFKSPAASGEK

Row | melting point | IC50 [1] | Compound
1 | 160 to 162 °C | < 100 nM | Cc1cccc(N(C)CCNC(=O)Nc2cccc3c2CC(O)CC3)c1 (centres unmarked) [Example 1-10, N-(7-Hydroxy-5,6,7,8-tetrahydronaphthalen-1-yl)-N′-{2-[methyl(m-tolyl)amino]-ethyl}urea]
2 | 136 to 137 °C | < 100 nM | CCN(CCNC(=O)Nc1cccc2c1C[C@@H](O)CC2)c1cccc(C)c1 [Example 1-12, N-{2-[Ethyl(m-tolyl)amino]ethyl}-N′-[(7S)-7-hydroxy-5,6,7,8-tetrahydro-1-naphthalenyl]urea]
3 | 125 to 126 °C | < 100 nM | CN(CCCNC(=O)Nc1cccc2c1CC(O)CC2)c1ccccc1 (centres unmarked) [Example 1-13, N-(7-Hydroxy-5,6,7,8-tetrahydronaphthalen-1-yl)-N′-[3-(methyl-phenyl-amino)propyl]urea]
4 | 143 to 144 °C | < 100 nM | CCN(CCNC(=O)Nc1cccc2c1C[C@H](O)CC2)c1cccc(C)c1 [Example 1-11, N-{2-[Ethyl(m-tolyl)amino]ethyl}-N′-[(7R)-7-hydroxy-5,6,7,8-tetrahydro-1-naphthalenyl]urea]
5 | 149 to 150 °C | < 100 nM | CCN(CCNC(=O)Nc1cccc2c1CC(O)CC2)c1cccc(C)c1 (centres unmarked) [Example 1-9, N-{2-[Ethyl(m-tolyl)amino]ethyl]-N′-(7-hydroxy-5,6,7,8-tetrahydro-1-naphthalenyl)urea]

The remaining lines, values behind:

Row | Compound | melting point | IC50 [1]
6 | O=C(NCCOc1ccc(F)cc1)Nc1cccc2c1CC(O)CC2 (centres unmarked) [Example 1-1, N-[2-(4-Fluorophenoxy)ethyl]-N′-(7-hydroxy-5,6,7,8-tetrahydronaphthalen-1-yl)urea] | 167 to 169 °C | < 100 nM
7 | CCOC(=O)c1c(F)cccc1OCCNC(=O)Nc1cccc2c1CC(O)CC2 (centres unmarked) [Example 1-3, Ethyl 2-Fluoro-6-{2-[3-(7-hydroxy-5,6,7,8-tetrahydronaphthalen-1-yl)-ureido]-ethoxy}benzoate] | 165 to 166 °C | < 100 nM
8 | O=C(NCCOc1ccc(F)cc1)Nc1cccc2c1C[C@@H](O)CC2 [Example 1-8, N-[2-(4-Fluorophenoxy)ethyl]-N′-[(7S)-7-hydroxy-5,6,7,8-tetrahydronaphthalen-1-yl]urea] | 112 to 113 °C | < 100 nM
9 | COc1ccccc1OCCNC(=O)Nc1cccc2c1CC(O)CC2 (centres unmarked) [Example 1-6, N-(7-Hydroxy-5,6,7,8-tetrahydronaphthalen-1-yl)-N′-[2-(2-methoxyphenoxy)ethyl]urea] | 182 to 184 °C | > 1000 nM
10 | O=C(NCCOc1ccc(F)cc1)Nc1cccc2c1C[C@H](O)CC2 [Example 1-7, N-[2-(4-Fluorophenoxy)ethyl]-N′-[(7R)-7-hydroxy-5,6,7,8-tetrahydronaphthalen-1-yl]urea] | 111 to 113 °C | < 100 nM
11 | O=C(NCCOc1cc(C(F)(F)F)cc(C(F)(F)F)c1)Nc1cccc2c1CC(O)CC2 (centres unmarked) [Example 1-4, N-{2-[3,5-Bis(trifluoromethyl)phenoxy]ethyl}-N′-(7-hydroxy-5,6,7,8-tetrahydronaphthalen-1-yl)urea] | 144 to 149 °C | < 100 nM
12 | O=C(NCCOc1ccccc1N1CCCCC1)Nc1cccc2c1CC(O)CC2 (centres unmarked) [Example 1-5, N-(7-Hydroxy-5,6,7,8-tetrahydronaphthalen-1-yl)-N′-[2-(2-piperidin-1-yl-phenoxy)ethyl]urea] | 128 to 136 °C | < 100 nM
13 | O=C(NCCOc1ccccc1F)Nc1cccc2c1CC(O)CC2 (centres unmarked) [Example 1-2, N-[2-(2-Fluorophenoxy)ethyl]-N′-(7-hydroxy-5,6,7,8-tetrahydro-1-naphthalenyl)-urea] | 131 to 136 °C | < 100 nM

Reference: US7423175B2, “Hydroxy-tetrahydro-naphthalenylurea derivatives” (Bayer Healthcare AG, priority 2003, dated 2008)
